Article PMC11790708, “Clioquinol inhibits angiogenesis by promoting VEGFR2 degradation and synergizes with AKT inhibition to suppress triple-negative breast cancer vascularization” (Angiogenesis, 2025)
pIC50: −log10 of the molar value.

Molecular target: T1, VEGFR2 (Homo sapiens, UniProt P35968)
T1 construct: gene KDR; recombinant VEGFR2 (amino acids 789 to end)
Assay: cell-free ADP-Glo kinase assay at […] ATP, with ATP competition at […] ATP
Type: biochemical

T1 sequence (P35968 789-1356): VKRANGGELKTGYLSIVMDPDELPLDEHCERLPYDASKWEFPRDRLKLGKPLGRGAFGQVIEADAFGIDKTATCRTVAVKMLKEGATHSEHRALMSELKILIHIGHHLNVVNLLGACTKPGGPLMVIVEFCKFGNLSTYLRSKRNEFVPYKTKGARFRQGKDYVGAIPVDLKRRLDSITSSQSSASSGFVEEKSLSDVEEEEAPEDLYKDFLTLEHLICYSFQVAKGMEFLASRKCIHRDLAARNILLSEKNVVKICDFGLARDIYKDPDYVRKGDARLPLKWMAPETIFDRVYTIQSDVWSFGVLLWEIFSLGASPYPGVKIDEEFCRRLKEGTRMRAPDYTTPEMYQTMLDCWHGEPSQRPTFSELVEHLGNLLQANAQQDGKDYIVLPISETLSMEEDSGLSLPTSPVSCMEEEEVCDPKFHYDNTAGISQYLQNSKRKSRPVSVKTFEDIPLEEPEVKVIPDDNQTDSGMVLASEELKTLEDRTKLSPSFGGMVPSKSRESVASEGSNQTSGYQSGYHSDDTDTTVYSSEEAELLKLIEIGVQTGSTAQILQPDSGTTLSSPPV

## Oc1c(I)cc(Cl)c2cccnc12 [clioquinol]
  pIC50: 4.46
